Read-outs that look alike come from different tables or passages of the source.
What was measured:
Format in all cases: cell-based
[1] = system: Cutibacterium acnes strain 12 (HM-539 (HL086PA1)); experiment: Growth of C. acnes strain 12 in RCM with antibacterial agent, optical density
Method: (§1) Seven different strains of Cutibacterium acnes were grown in test tubes in Reinforced Clostridial Medium (RCM). Each strain was divided into different wells of mulita-well plates (96-well and 384-well plates were used). 80 μl was used and a 1:200 dilution from saturated cultures. Either an antibacterial agent or vehicle (as a control) was added to each well. Absorbance was measured and quantified as optical density (OD) as a proxy for cell biomass. The OD was recorded at regular intervals over several hours. […] The OD at 48 hours was estimated by calculating the average OD between 47 and 49 hours, and this value was used for further analyses. OD600 is the OD at 600 nm. The OD is listed in arbitrary units determined by the spectrophotometers. Such OD data was collected for different concentrations of each antibacterial agent. […] The horizontal axis has units of μM (micromoles per liter).

[2] = system: Cutibacterium acnes strain 2 (BWH-002 25541381); experiment: Growth of C. acnes strain 2 in RCM with antibacterial agent, optical density
Method: as §1

[3] = system: Cutibacterium acnes strain 10 (HM-523 (HL053PA2)); experiment: Growth of C. acnes strain 10 in RCM with antibacterial agent, optical density
Method: as §1

[4] = system: Cutibacterium acnes strain 16 (KPL1847); experiment: Growth of C. acnes strain 16 in RCM with antibacterial agent, optical density
Method: as §1

[5] = system: Cutibacterium acnes strain 3 (BWH-003 25505801); experiment: Growth of C. acnes strain 3 in RCM with antibacterial agent, optical density
Method: as §1

[6] = system: Cutibacterium acnes strain 15 (KPL2008); experiment: Growth of C. acnes strain 15 in RCM with antibacterial agent, optical density
Method: as §1

[7] = system: Cutibacterium acnes strain 13 (HM-552 (HL110PA1)); experiment: Growth of C. acnes strain 13 in RCM with antibacterial agent, optical density
Method: as §1

Cutibacterium acnes = experiment: Effect of antibacterial agents on C. acnes, seven strains taken together; conditions: across the tested strains
Method: Seven different strains of Cutibacterium acnes were grown in test tubes in Reinforced Clostridial Medium (RCM). Each strain was divided into different wells of mulita-well plates (96-well and 384-well plates were used). 80 μl was used and a 1:200 dilution from saturated cultures. Either an antibacterial agent or vehicle (as a control) was added to each well. Absorbance was measured and quantified as optical density (OD) as a proxy for cell biomass. The OD was recorded at regular intervals over several hours. […] The OD at 48 hours was estimated by calculating the average OD between 47 and 49 hours, and this value was used for further analyses. OD600 is the OD at 600 nm. The OD is listed in arbitrary units determined by the spectrophotometers.
Such OD data was collected for different concentrations of each antibacterial agent. […] The horizontal axis has units of μM (micromoles per liter). Next, IC50 values were calculated by assessing when the OD value was about 0.5.

[8] = strain 12, OD at 48 hours, RCM, read-out: IC50
[9] = strain 2, OD at 48 hours, RCM, read-out: IC50
[10] = strain 10, OD at 48 hours, RCM, read-out: IC50
[11] = strain 16, OD at 48 hours, RCM, read-out: IC50
[12] = strain 3, OD at 48 hours, RCM, read-out: IC50
[13] = strain 15, OD at 48 hours, RCM, read-out: IC50
[14] = strain 13, OD at 48 hours, RCM, read-out: IC50

Compound | IC50 [1, 8] [µM] | IC50 [2, 9] [µM] | IC50 [3, 10] [µM] | IC50 [4, 11] [µM] | IC50 [5, 12] [µM] | IC50 [6, 13] [µM] | IC50 [7, 14] [µM] | IC50 values, in words (Cutibacterium acnes) | IC50 ([1]; 48 h) [µM] | IC50 ([2]; 48 h) [µM] | IC50 ([3]; 48 h) [µM] | IC50 ([4]; 48 h) [µM] | IC50 ([5]; 48 h) [µM] | IC50 ([6]; 48 h) [µM] | IC50 ([7]; 48 h) [µM]
CN[C@H](CC(C)C)C(=O)N[C@H]1C(=O)N[C@@H](CC(N)=O)C(=O)N[C@H]2C(=O)N[C@H]3C(=O)N[C@H](C(=O)N[C@H](C(=O)O)c4cc(O)cc(O)c4-c4cc3ccc4O)[C@H](O)c3ccc(c(Cl)c3)Oc3cc2cc(c3O[C@@H]2O[C@H](CO)[C@@H](O)[C@H](O)[C@H]2O[C@H]2C[C@](C)(N)[C@H](O)[C@H](C)O2)Oc2ccc(cc2Cl)[C@H]1O [Vancomycin] | – | – | – | – | – | – | – | – | 0.31 | 0.16 | 0.16 | 0.31 | 0.15 | 0.31 | 0.16
C[C@@H](O)[C@H]1C(=O)N2C(C(=O)O)=C(S[C@@H]3CN[C@H](C(=O)Nc4cccc(C(=O)O)c4)C3)[C@H](C)[C@H]12 [Ertapenem] | 0.0098 | 0.039 | 0.078 | 0.31 | 0.16 | 0.16 | 0.039 | – | – | – | – | – | – | – | –
CO/N=C(\C(=O)N[C@@H]1C(=O)N2C(C(=O)[O-])=C(C[N+]3(C)CCCC3)CS[C@H]12)c1csc(N)n1 [Cefepime] | 0.16 | 0.31 | 0.31 | 2.5 | 2.5 | 2.5 | 0.31 | – | – | – | – | – | – | – | –
O=C(OOC(=O)c1ccccc1)c1ccccc1 [Benzoyl Peroxide] | 2560 | 2560 | 1280 | 640 | > 2560 | 640 | 640 | – | – | – | – | – | – | – | –
CC1(C)S[C@@H]2[C@H](NC(=O)[C@H](N)c3ccc(O)cc3)C(=O)N2[C@H]1C(=O)O [Amoxicillin] | 0.039 | 0.078 | 0.078 | 0.31 | 0.0098 | 0.16 | 0.019 | relatively low IC50 values | – | – | – | – | – | – | –

The remaining molecules from weak to strong by IC50 [1, 8], led by results:

IC50 [1, 8] [µM] | IC50 [2, 9] [µM] | IC50 [3, 10] [µM] | IC50 [4, 11] [µM] | IC50 [5, 12] [µM] | IC50 [6, 13] [µM] | IC50 [7, 14] [µM] | IC50 values, in words (Cutibacterium acnes) | Compound | IC50 ([1]; 48 h) [µM] | IC50 ([2]; 48 h) [µM] | IC50 ([3]; 48 h) [µM] | IC50 ([4]; 48 h) [µM] | IC50 ([5]; 48 h) [µM] | IC50 ([6]; 48 h) [µM] | IC50 ([7]; 48 h) [µM]
5120 | > 5120 | > 5120 | > 5120 | > 5120 | 5120 | 5120 | – | Cc1ncc([N+](=O)[O-])n1CCO [Metronidazole] | – | – | – | – | – | – | –
1280 | 1280 | 2560 | 2560 | 2560 | 2560 | 640 | – | OO [Hydrogen Peroxide] | – | – | – | – | – | – | –
160 | 640 | 320 | 160 | 80 | 640 | 320 | – | NC[C@H]1O[C@H](O[C@H]2[C@H](O)[C@@H](O[C@H]3O[C@H](CO)[C@@H](O)[C@H](N)[C@H]3O)[C@H](N)C[C@@H]2N)[C@H](O)[C@@H](O)[C@@H]1O [Kanamycin] | – | – | – | – | – | – | –
0.0098 | 0.0097 | 0.0098 | – | 0.0098 | – | 0.0098 | relatively low IC50 values | CO/N=C(\C(=O)N[C@@H]1C(=O)N2C(C(=O)O)=C(CSc3nc(=O)c(=O)[nH]n3C)CS[C@H]12)c1csc(N)n1 [Ceftriaxone] | – | – | – | – | – | – | –

Source: patent US20240366498A1, “Reducing the Risk of Infection from Bacteria Present in Skin Pores During Surgery” (The Board of Trustees of the Leland Stanford Junior …, priority 2021, published 2024)
